biological target: Human MGAT-2 (Homo sapiens (Human), UniProt Q3SYC2); assay: MGAT LCMS Assay (human MGAT-2); assay type: biochemical; details: human MGAT-2 membranes expressed in Sf9 cells; 2-oleoylglycerol and oleoyl-Coenzyme A; read-out: h-MGAT2 IC50 (nM) LCMS Assay;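 note: diolein product quantified by LC/MS with positive APCI, expressed as peak area ratio versus an internal standard, and this ratio used to derive IC50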
Sequence (Q3SYC2 whole entry): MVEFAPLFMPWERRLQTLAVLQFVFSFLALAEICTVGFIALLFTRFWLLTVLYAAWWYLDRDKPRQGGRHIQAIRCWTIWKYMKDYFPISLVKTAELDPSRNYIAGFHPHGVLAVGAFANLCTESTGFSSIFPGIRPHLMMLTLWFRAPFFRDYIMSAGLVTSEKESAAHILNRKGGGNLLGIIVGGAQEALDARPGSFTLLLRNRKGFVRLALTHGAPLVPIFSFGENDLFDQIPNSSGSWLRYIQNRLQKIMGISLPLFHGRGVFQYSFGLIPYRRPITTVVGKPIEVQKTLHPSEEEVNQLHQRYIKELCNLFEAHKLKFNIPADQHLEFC

Compound | IC50 [nM]
Cc1ccc(C2=C(NC(=O)c3cocn3)C(=O)NC(c3ccc(OCCCC(F)(F)F)cc3)(C(F)(F)F)C2)cc1 (centres unmarked) [Example 151] | 5120
Cc1ccc(C2=C(c3nn[nH]n3)C(=O)NC(c3ccc(C#CCC4CCCCC4)cc3)(C(F)(F)F)C2)cc1 (centres unmarked) [Example 289] | 19
COc1ccc(NC(=O)C2=C(c3ccc(C)cc3)CC(C)(C(=O)NCC(C)C)NC2=O)cc1 (centres unmarked) [Example 188] | 1520
O=C1NC(c2ccc(OCCCCCC(F)(F)F)cc2)(C(F)(F)F)CC(c2ccc(OCC(F)F)cc2)=C1c1nn[nH]n1 (centres unmarked) [Example 248] | 8
COc1ccc(C2=C(NC(=O)CS(C)(=O)=O)C(=O)NC(c3ccc(OCCCC(F)(F)F)cc3)(C(F)(F)F)C2)cc1 (centres unmarked) [Example 252] | 7
O=C1NC(c2ccc(OCCCCCC(F)(F)F)cc2F)(C(F)(F)F)CC(c2ccc(OC(F)F)cc2)=C1c1nn[nH]n1 (centres unmarked) [Example 274] | 1
CCCCCC#CC1(C(F)(F)F)CC(c2ccc(C)cc2)=C(c2cn[nH]n2)C(=O)N1 (centres unmarked) [Example 194] | 6
COc1ccc(C(=O)NC2=C(c3ccc(C)cc3)CC(c3cnn(CCCCC(F)(F)F)c3)(C(F)(F)F)NC2=O)cc1 (centres unmarked) [Example 229] | 25
Cc1ccc(C2=C(NC(=O)c3cn(C)nn3)C(=O)NC(c3ccc(OCCCC(F)(F)F)cc3)(C(F)(F)F)C2)cc1 (centres unmarked) [Example 246] | 36
O=C1NC(c2ccc(OCCCC(F)(F)F)cc2)(C(F)(F)F)CC(c2ccc3ccccc3c2)=C1c1nn[nH]n1 (centres unmarked) [Example 207] | 11
Cc1ccc(C2=C(C(=O)Nc3ccc(-c4nn[nH]n4)cc3)C(=O)NC(c3ccc(OCCC(F)(F)F)cc3)(C(F)(F)F)C2(F)F)cc1 (centres unmarked) [Example 134] | 168
CCOc1ccc(C2=C(c3nn[nH]n3)C(=O)NC(c3ccc(OCCCC(F)(F)F)cc3)(C(F)(F)F)C2)cc1 (centres unmarked) [Example 92] | 136
CCn1nnc(C2=C(c3ccc(C)cc3)CC(c3ccc(OCCCC(F)(F)F)cc3)(C(F)(F)F)NC2=O)n1 (centres unmarked) [Example 9, 3-(2-Ethyl-2H-tetrazol-5-yl)-4-p-tolyl-6-(4-(4,4,4-trifluorobutoxyl)phenyl)-6-(trifluoromethyl)-5,6-dihydropyridin-2(1H)-one] | 121
O=C1NC(c2ccc(OCCCC(F)(F)F)cc2)(C(F)(F)F)CC(c2ccc(-n3cccn3)cc2)=C1c1nn[nH]n1 (centres unmarked) [Example 236] | 489
COc1ccc(C2=C(c3nn[nH]n3)C(=O)NC(c3ccc(OCCCC(F)(F)F)cc3)(C(F)(F)F)C2)cc1 (centres unmarked) [Example 244] | 61
Cc1ccc(C2=C(c3nn[nH]n3)C(=O)NC(c3ccc(C#CC4CCCCC4)cc3)(C(F)(F)F)C2)cc1 (centres unmarked) [Example 291] | 178
CCCCCCCn1ccc(C2(C)CC(c3ccc(C)cc3)=C(C#N)C(=O)N2)n1 (centres unmarked) [Example 109, 6-(1-Heptyl-1H-pyrazol-3-yl)-6-methyl-2-oxo-4-p-tolyl-1,2,5,6-tetrahydropyridine-3-carbonitrile] | 39
CCCOc1ccc(C2(C(F)(F)F)CC(c3ccc(C)cc3)=C(NC(=O)CS(C)(=O)=O)C(=O)N2)cc1 (centres unmarked) [Example 302] | 105
Cc1ccc(C2=C(NC(=O)CNS(C)(=O)=O)C(=O)NC(c3ccc(OCCCC(F)(F)F)cc3)(C(F)(F)F)C2)cc1 (centres unmarked) [Example 297] | 639
N#CC1=C(c2ccc(Cl)c(F)c2)CC(c2ccc(OCCCC(F)(F)F)cc2)(C(F)(F)F)NC1=O (centres unmarked) [Example 220] | 13

Compound | IC50 [nM]
COc1ccc(C2=C(C#N)C(=O)NC(c3ccc(OCCCC(F)(F)F)cc3)(C(F)(F)F)C2)cc1C (centres unmarked) [Example 215] | 11
O=C1NC(c2ccc(OCCCCCC(F)(F)F)c(F)c2)(C(F)(F)F)CC(c2ccc(OC(F)F)cc2)=C1c1nn[nH]n1 (centres unmarked) [Example 301] | 19
COc1ccc(C2(C(F)(F)F)NC(=O)C(C#N)=C(c3ccc(C)cc3)C2(F)F)cc1 (centres unmarked) [Example 138] | 5800
CCCCOc1ccc(C2(C)CC(c3ccc(C)cc3)=C(C#N)C(=O)N2)cc1 (centres unmarked) [Example 107, 6-(4-Butoxyphenyl)-6-methyl-2-oxo-4-p-tolyl-1,2,5,6-tetrahydropyridine-3-carbonitrile] | 93
N#CC1=C(c2ccc(OC(F)(F)F)c(F)c2)CC(c2ccc(OCCCC(F)(F)F)cc2)(C(F)(F)F)NC1=O (centres unmarked) [Example 261] | 1220
CCOc1ccc(C2=C(c3nn[nH]n3)C(=O)NC(c3ccc(OCCCCCC(F)(F)F)cc3F)(C(F)(F)F)C2)cc1 (centres unmarked) [Example 283] | 3
COc1ccc(C2=C(C#N)C(=O)NC(c3ccc(OCCCC(F)(F)F)cc3)(C(F)(F)F)C2)cc1F (centres unmarked) [Example 218] | 166
Cc1ccc(C2=C(c3nn[nH]n3)C(=O)NC(c3ccc(C#CCOCc4ccccc4)cc3)(C(F)(F)F)C2)cc1 (centres unmarked) [Example 290] | 56
CCNC(=O)NC1=C(c2ccc(OCC(F)F)cc2)CC(c2ccc(OCCCC(F)(F)F)cc2)(C(F)(F)F)NC1=O (centres unmarked) [Example 254] | 170
Cc1ccc(C2=C(C(O)Nc3ccccc3)C(=O)NC(c3ccc(OCCCC(F)(F)F)cc3)(C(F)(F)F)C2)cc1 (centres unmarked) [Example 115] | 40
Cc1cc(C2=C(C#N)C(=O)NC(c3ccc(OCCCC(F)(F)F)cc3)(C(F)(F)F)C2)ccc1Cl (centres unmarked) [Example 221] | 152
O=C1NC(c2ccc(OCCCC(F)(F)F)cc2)(C(F)(F)F)CC(c2cccc(Cl)c2)=C1c1nn[nH]n1 (centres unmarked) [Example 99] | 795
Cc1ccc(C2=C(NC(=O)c3ccccc3F)C(=O)NC(c3ccc(OCCCC(F)(F)F)cc3)(C(F)(F)F)C2)cc1 (centres unmarked) [Example 249] | 185
COc1cc(C2=C(C#N)C(=O)NC(c3ccc(OCCCC(F)(F)F)cc3)(C(F)(F)F)C2)ccc1C (centres unmarked) [Example 262] | 96
Cc1ccc(C2=C(c3nn[nH]n3)C(=O)NC(c3ccc(OCCCC(F)(F)F)cc3)(C(F)(F)F)C2)c(F)c1 (centres unmarked) [Example 286] | 4
Cc1ccc(C2=C(NC(=O)[C@@H](C)O)C(=O)NC(c3ccc(OCCCC(F)(F)F)cc3)(C(F)(F)F)C2)cc1 (some centres unmarked) [Example 253] | 411
COc1ccc(C(=O)NC2=C(c3ccc(C)cc3)C(F)(F)C(c3ccc(OCCCCC(F)(F)F)cc3)(C(F)(F)F)NC2=O)cc1 (centres unmarked) [Example 164] | 162
Cc1ccc(C2=C(NC(=O)c3nnn[nH]3)C(=O)NC(c3ccc(OCCCC(F)(F)F)cc3)(C(F)(F)F)C2)cc1 (centres unmarked) [Example 310] | 4
Cc1ccc(C2=C(NC(=O)c3ccn(C)n3)C(=O)NC(c3ccc(OCCCC(F)(F)F)cc3)(C(F)(F)F)C2)cc1 (centres unmarked) [Example 231] | 34
COc1ccc(C2=C[C@@](c3ccc(OCCCC(F)(F)F)cc3)(C(F)(F)F)NC(=O)C2(F)C#N)cc1 (stereo in doubt) [Example 15-3, 3-Fluoro-4-(4-methoxyphenyl)-2-oxo-6-(4-(4,4,4-trifluorobutoxyl)phenyl)-6-(trifluoromethyl)-1,2,3,6-tetrahydropyridine-3-carbonitrile] | 756

Compound | IC50 [nM]
Cc1ccc(C2=C(C(=O)Nc3cccc(C)c3)C(=O)NC(c3ccc(OCCC(F)(F)F)cc3)(C(F)(F)F)C2)cc1 (centres unmarked) [Example 128] | 328
O=C1NC(c2ccc(OCCCC(F)(F)F)cc2)(C(F)(F)F)CC(c2ccc(CC(F)(F)F)cc2)=C1c1nn[nH]n1 (centres unmarked) [Example 271] | 12
Cc1ccc(C2=C(NC(=O)c3ccc(OC(F)(F)F)cc3)C(=O)NC(c3cnn(CCCCCC(F)(F)F)c3)(C(F)(F)F)C2)cc1 (centres unmarked) [Example 200] | 37
Cc1ccc(C2=C(C(=O)Nc3nnc(C(F)(F)F)o3)C(=O)NC(c3ccc(OCCC(F)(F)F)cc3)(C(F)(F)F)C2)cc1 (centres unmarked) [Example 136] | 328
Cc1cccc(C2=C(c3nn[nH]n3)C(=O)NC(c3ccc(OCCCC(F)(F)F)cc3)(C(F)(F)F)C2)c1 (centres unmarked) [Example 96] | 1430
Cc1ccc(C2=C(C(=O)Nc3ccc(C#N)cc3)C(=O)NC(c3ccc(OCCCC(F)(F)F)cc3)(C(F)(F)F)C2(F)F)cc1 (centres unmarked) [Example 103, N-(4-Cyanophenyl)-5,5-difluoro-2-oxo-4-p-tolyl-6-(4-(4,4,4-trifluorobutoxyl)phenyl)-6-(trifluoromethyl)-1,2,5,6-tetrahydropyridine-3-carboxamide] | 645
CCCCCCCc1cnc(C2(C(F)(F)F)CC(c3ccc(C)cc3)=C(c3nn[nH]n3)C(=O)N2)s1 (centres unmarked) [Example 292] | 304
COc1cc(C(=O)NC2=C(c3ccc(C)cc3)CC(c3ccc(OCCCC(F)(F)F)cc3)(C(F)(F)F)NC2=O)on1 (centres unmarked) [Example 187] | 4
COc1ccc(NC(=O)C2=C(c3ccc(C)cc3)CC(C)(C(=O)NCCCC(F)(F)F)NC2=O)cc1 (centres unmarked) [Example 102, N^5-(4-Methoxyphenyl)-2-methyl-6-oxo-4-p-tolyl-N^2-(4,4,4-trifluorobutyl)-1,2,3,6-tetrahydropyridine-2,5-dicarboxamide] | 1090
COc1ccc(C2=C(C#N)C(=O)NC(c3ccc(OCCCC(F)(F)F)cc3)(C(F)(F)F)C2)cc1OC (centres unmarked) [Example 216] | 440
CCOP(=O)(CC(=O)NC1=C(c2ccc(C)cc2)CC(c2ccc(OCCCC(F)(F)F)cc2)(C(F)(F)F)NC1=O)OCC (centres unmarked) [Example 282] | 3
Cc1ccc(C2=C(C(=O)Nc3ccccc3OC(F)(F)F)C(=O)NC(c3ccc(OCCC(F)(F)F)cc3)(C(F)(F)F)C2)cc1 (centres unmarked) [Example 137] | 252
COc1ccc(C(=O)NC2=C(c3ccc(C)cc3)CC(c3ccc(OCCCC(F)(F)F)cc3)NC2=O)cc1 (centres unmarked) [Example 214] | 12
COCc1ccc(C2=C(c3nn[nH]n3)C(=O)NC(c3ccc(OCCCC(F)(F)F)cc3)(C(F)(F)F)C2)cc1 (centres unmarked) [Example 202] | 89
Cc1ccc(C2=C(C#N)C(=O)NC(c3ccc(OCCCC(F)(F)F)cc3)(C(F)(F)F)C2)cc1F (centres unmarked) [Example 219] | 172
Cc1ccc(C2=C(C#N)C(=O)NC(c3ccc(OCCCC(F)(F)F)cc3)(C(F)(F)F)C2(F)F)cc1 (centres unmarked) [Example 160] | 5400
O=C1NC(c2ccc(OCCCC(F)(F)F)cc2)(C(F)(F)F)CC(c2ccc(Br)cc2)=C1c1nn[nH]n1 (centres unmarked) [Example 234] | 40
COc1cccc(C2=C(c3nn[nH]n3)C(=O)NC(c3ccc(OCCCC(F)(F)F)cc3)(C(F)(F)F)C2)c1 (centres unmarked) [Example 100] | 1580
CCCCCC#CC1(C(F)(F)F)CC(c2ccc(C)cc2)=C(c2nn[nH]n2)C(=O)N1 (centres unmarked) [Example 293] | 7
